# Laboratory results as given in the NIST ThermoML archive (doi:10.1016/j.jct.2018.12.014).
# ± gives the expanded uncertainty stated by the source.
# What was measured:
# [1] = refractive index (Na D-line) (dimensionless); wn = mass fraction of the nth substance listed; details: 101 kPa, Liquid, Standard Abbe refractometry
# [2] = wn = mass fraction of the nth substance listed; details: 101 kPa, Liquid, Vibrating tube method
smiles,measurement,setting,value
C[P+](c1ccccc1)(c1ccccc1)c1ccccc1.[Br-] [methyltriphenylphosphonium bromide] + CN(CCO)CCO,refractive index,"[1]; 293.15 K, w1 = 0.1578",1.49579 ± 0.0039
same,refractive index,"[1]; 293.15 K, w1 = 0.2306",1.50867 ± 0.0038
same,refractive index,"[1]; 293.15 K, w1 = 0.2998",1.52077 ± 0.0038
same,refractive index,"[1]; 298.15 K, w1 = 0.1578",1.49402 ± 0.0038
same,refractive index,"[1]; 298.15 K, w1 = 0.2306",1.50694 ± 0.0038
same,refractive index,"[1]; 298.15 K, w1 = 0.2998",1.51904 ± 0.0038
same,refractive index,"[1]; 303.15 K, w1 = 0.1578",1.49224 ± 0.0038
same,refractive index,"[1]; 303.15 K, w1 = 0.2306",1.50517 ± 0.0038
same,refractive index,"[1]; 303.15 K, w1 = 0.2998",1.51732 ± 0.0038
same,refractive index,"[1]; 308.15 K, w1 = 0.1578",1.49037 ± 0.0038
same,refractive index,"[1]; 308.15 K, w1 = 0.2306",1.5034 ± 0.0038
same,refractive index,"[1]; 308.15 K, w1 = 0.2998",1.51557 ± 0.0038
same,refractive index,"[1]; 313.15 K, w1 = 0.1578",1.48865 ± 0.0038
same,refractive index,"[1]; 313.15 K, w1 = 0.2306",1.50162 ± 0.0038
same,refractive index,"[1]; 313.15 K, w1 = 0.2998",1.51383 ± 0.0038
same,refractive index,"[1]; 318.15 K, w1 = 0.1578",1.4869 ± 0.0038
same,refractive index,"[1]; 318.15 K, w1 = 0.2306",1.49961 ± 0.0038
same,refractive index,"[1]; 318.15 K, w1 = 0.2998",1.51212 ± 0.0038
same,refractive index,"[1]; 323.15 K, w1 = 0.1578",1.48502 ± 0.0038
same,refractive index,"[1]; 323.15 K, w1 = 0.2306",1.49793 ± 0.0038
same,refractive index,"[1]; 323.15 K, w1 = 0.2998",1.5103 ± 0.0038
same,refractive index,"[1]; 328.15 K, w1 = 0.1578",1.48313 ± 0.0038
same,refractive index,"[1]; 328.15 K, w1 = 0.2306",1.49584 ± 0.0038
same,refractive index,"[1]; 328.15 K, w1 = 0.2998",1.5083 ± 0.0038
same,refractive index,"[1]; 333.15 K, w1 = 0.1578",1.48114 ± 0.0038
same,refractive index,"[1]; 333.15 K, w1 = 0.2306",1.4942 ± 0.0038
same,refractive index,"[1]; 333.15 K, w1 = 0.2998",1.50644 ± 0.0038
same,refractive index,"[1]; 338.15 K, w1 = 0.1578",1.47935 ± 0.0038
same,refractive index,"[1]; 338.15 K, w1 = 0.2306",1.49244 ± 0.0038
same,refractive index,"[1]; 338.15 K, w1 = 0.2998",1.50466 ± 0.0038
same,refractive index,"[1]; 343.15 K, w1 = 0.1578",1.47746 ± 0.0038
same,refractive index,"[1]; 343.15 K, w1 = 0.2306",1.49064 ± 0.0038
same,refractive index,"[1]; 343.15 K, w1 = 0.2998",1.50288 ± 0.0038
same,mass density,"[2]; 293.15 K, w1 = 0.1578",1086.84 ± 8.5 kg/m3
same,mass density,"[2]; 293.15 K, w1 = 0.2306",1106.7 ± 8.4 kg/m3
same,mass density,"[2]; 293.15 K, w1 = 0.2998",1124.09 ± 8.3 kg/m3
same,mass density,"[2]; 298.15 K, w1 = 0.1578",1083.1 ± 8.5 kg/m3
same,mass density,"[2]; 298.15 K, w1 = 0.2306",1102.99 ± 8.4 kg/m3
same,mass density,"[2]; 298.15 K, w1 = 0.2998",1120.4 ± 8.2 kg/m3
same,mass density,"[2]; 303.15 K, w1 = 0.1578",1079.34 ± 8.5 kg/m3
same,mass density,"[2]; 303.15 K, w1 = 0.2306",1099.26 ± 8.3 kg/m3
same,mass density,"[2]; 303.15 K, w1 = 0.2998",1116.71 ± 8.2 kg/m3
same,mass density,"[2]; 308.15 K, w1 = 0.1578",1075.59 ± 8.4 kg/m3
same,mass density,"[2]; 308.15 K, w1 = 0.2306",1095.54 ± 8.3 kg/m3
same,mass density,"[2]; 308.15 K, w1 = 0.2998",1113.03 ± 8.2 kg/m3
same,mass density,"[2]; 313.15 K, w1 = 0.1578",1071.84 ± 8.4 kg/m3
same,mass density,"[2]; 313.15 K, w1 = 0.2306",1091.82 ± 8.3 kg/m3
same,mass density,"[2]; 313.15 K, w1 = 0.2998",1109.36 ± 8.2 kg/m3
same,mass density,"[2]; 318.15 K, w1 = 0.1578",1068.08 ± 8.4 kg/m3
same,mass density,"[2]; 318.15 K, w1 = 0.2306",1088.09 ± 8.3 kg/m3
same,mass density,"[2]; 318.15 K, w1 = 0.2998",1105.69 ± 8.1 kg/m3
same,mass density,"[2]; 323.15 K, w1 = 0.1578",1064.32 ± 8.3 kg/m3
same,mass density,"[2]; 323.15 K, w1 = 0.2306",1084.36 ± 8.2 kg/m3
same,mass density,"[2]; 323.15 K, w1 = 0.2998",1102.01 ± 8.1 kg/m3
same,mass density,"[2]; 328.15 K, w1 = 0.1578",1060.54 ± 8.3 kg/m3
same,mass density,"[2]; 328.15 K, w1 = 0.2306",1080.63 ± 8.2 kg/m3
same,mass density,"[2]; 328.15 K, w1 = 0.2998",1098.34 ± 8.1 kg/m3
same,mass density,"[2]; 333.15 K, w1 = 0.1578",1056.77 ± 8.3 kg/m3
same,mass density,"[2]; 333.15 K, w1 = 0.2306",1076.9 ± 8.2 kg/m3
same,mass density,"[2]; 333.15 K, w1 = 0.2998",1094.66 ± 8.1 kg/m3
same,mass density,"[2]; 338.15 K, w1 = 0.1578",1052.98 ± 8.3 kg/m3
same,mass density,"[2]; 338.15 K, w1 = 0.2306",1073.17 ± 8.2 kg/m3
same,mass density,"[2]; 338.15 K, w1 = 0.2998",1090.99 ± 8 kg/m3
same,mass density,"[2]; 343.15 K, w1 = 0.1578",1049.19 ± 8.2 kg/m3
same,mass density,"[2]; 343.15 K, w1 = 0.2306",1069.43 ± 8.1 kg/m3
same,mass density,"[2]; 343.15 K, w1 = 0.2998",1087.31 ± 8 kg/m3
same,mass density,"[2]; 348.15 K, w1 = 0.1578",1045.47 ± 8.2 kg/m3
same,mass density,"[2]; 348.15 K, w1 = 0.2306",1065.72 ± 8.1 kg/m3
same,mass density,"[2]; 348.15 K, w1 = 0.2998",1083.63 ± 8 kg/m3
same,mass density,"[2]; 353.15 K, w1 = 0.1578",1041.65 ± 8.2 kg/m3
same,mass density,"[2]; 353.15 K, w1 = 0.2306",1062.05 ± 8.1 kg/m3
same,mass density,"[2]; 353.15 K, w1 = 0.2998",1080.06 ± 8 kg/m3
